Test results from patent US12582120B2, “Compositions with fatty acids and optional cationic compounds and methods of use” (priority 2021, dated 2026).
Where “and” joins values, the source holds several entries; their conditions need not be identical. Equal values may be shown once.

Legend:
[1] = tested on: Acetobacter aceti (ATCC 15973); test: Example 1 preliminary screen of antimicrobial efficacy, Acetobacter; format: cell-based; conditions: 60 s, 50 °C
Method: (§1) Example 1 was a preliminary screen of various compositions for antimicrobial efficacy against acetobacter and lactobacillus and yeast. For this example, the compositions were applied for 1 minute at 50° C. or 60° C. to Acetobacter aceti (ATCC 15973), Lactobacillus brevis (ATCC 14869), or Saccharomyces cerevisiae (ATCC 834).

[2] = tested on: Lactobacillus brevis (ATCC 14869); test: Example 1 preliminary screen of antimicrobial efficacy, Lactobacillus; format: cell-based
Source text: Example 1 was a preliminary screen of various compositions for antimicrobial efficacy against acetobacter and lactobacillus and yeast. […]

[3] = tested on: Saccharomyces cerevisiae (ATCC 834); test: Example 1 preliminary screen of antimicrobial efficacy, yeast; format: cell-based; conditions: pH 9, 60 s, 50 °C
Method: as §1

[4] = tested on: Lactobacillus brevis (ATCC 14869); test: Example 3 suspension test of nonanoic acid alone, Lactobacillus; format: cell-based; conditions: for % reduction / Log Reduction: Nonanoic Acid 200 ppm
Method: (§2) Example 3 tested concentrations of nonanoic acid alone for antimicrobial efficacy against acetobacter and lactobacillus. For this example, the compositions were applied for the recorded time and temperature to suspensions of Acetobacter aceti (ATCC 15973), or Lactobacillus brevis (ATCC 14869). After the period of time, a neutralizer was added to quench the reaction. The remaining solution was plated and counted for colonies and compared to the untreated control. The log reduction was recorded in the table below. The information in the column labeled “solution” describes the solution environment that was used for a test. For example, the solution may have included 0.5% or 1% sodium bicarbonate. The solution may have included multi-day old used clean-in-place solution from a plant that included sodium carbonate (labeled “used CIP”). The pH of the solution was adjusted with sodium carbonate.

[5] = tested on: Acetobacter aceti (ATCC 15973); test: Example 3 suspension test of nonanoic acid alone, Acetobacter; format: cell-based; conditions: for % reduction / Log Reduction: Nonanoic Acid 200 ppm, pH 9
Method: as §2

[6] = known antimicrobial agents; cited from earlier work
[7] = pH 8.5, 60 s, 50 °C, 1% sodium bicarbonate
[8] = pH 8.5, 600 s, 50 °C, 1% sodium bicarbonate
[9] = pH 8.5, 2 days, 20 °C, used CIP
[10] = pH 8.7, 60 s, 45 °C, 0.5% sodium bicarbonate
[11] = pH 8.7, 120 s, 45 °C, 0.5% sodium bicarbonate
[12] = pH 8.7, 300 s, 45 °C, 0.5% sodium bicarbonate
[13] = pH 8.7, 600 s, 45 °C, 0.5% sodium bicarbonate
[14] = pH 9, 60 s, 50 °C, 1% sodium bicarbonate
[15] = pH 10.5, 60 s, 50 °C, 1% sodium bicarbonate
[16] = pH 10.5, 600 s, 50 °C, used CIP
[17] = pH not adjusted, 60 s, 45 °C, 0.5% sodium bicarbonate
[18] = pH not adjusted, 120 s, 45 °C, 0.5% sodium bicarbonate
[19] = pH not adjusted, 300 s, 45 °C, 0.5% sodium bicarbonate
[20] = pH not adjusted, 600 s, 45 °C, 0.5% sodium bicarbonate
[21] = various times, temperatures, pHs, and solution conditions (Table 3)
[22] = 60 s, 50 °C, 1% sodium bicarbonate

CCCCCCCCCCCC(=O)N[C@@H](CCCN=C(N)N)C(=O)OCC [Ethyl Lauroyl Arginate, ethyl lauroyl arginate]
% reduction ([1]; Ethyl Lauroyl Arginate 2.5 ppm, pH 9): 99.891%
% reduction ([1]; Ethyl Lauroyl Arginate 5 ppm, pH 9): 99.981% and 99.922%
% reduction ([1]; Ethyl Lauroyl Arginate 25 ppm, pH 4): 32.759%
% reduction ([1]; Ethyl Lauroyl Arginate 25 ppm, pH 9): 99.808%
% reduction ([1]; Ethyl Lauroyl Arginate 25 ppm, pH 10): 99.241%
% reduction ([1]; Ethyl Lauroyl Arginate 50 ppm, pH 4): 98.491%
% reduction ([1]; Ethyl Lauroyl Arginate 50 ppm, pH 10): 99.763%
% reduction ([1]; Ethyl Lauroyl Arginate 200 ppm, pH 7): 99.999%
% reduction ([1]; Ethyl Lauroyl Arginate 200 ppm, pH 10): 99.998%
% reduction ([2]; Ethyl Lauroyl Arginate 5 ppm, pH 4, 60 s, 50 °C): 98.844%
% reduction ([2]; Ethyl Lauroyl Arginate 5 ppm, pH 9, 60 s, 50 °C): 99.999%
% reduction ([2]; Ethyl Lauroyl Arginate 25 ppm, pH 4, 50 s, 60 °C): 99.999%
% reduction ([2]; Ethyl Lauroyl Arginate 25 ppm, pH 10, 50 s, 60 °C): 100.000%
% reduction ([2]; Ethyl Lauroyl Arginate 50 ppm, pH 4, 50 s, 60 °C): 100.000%
% reduction ([2]; Ethyl Lauroyl Arginate 50 ppm, pH 10, 50 s, 60 °C): 100.000%
% reduction ([3]; Ethyl Lauroyl Arginate 5 ppm): 99.888%

CCCCCCCCC(=O)O [Nonanoic Acid, nonanoic acid]
% reduction ([1]; Nonanoic Acid 125 ppm, pH 9): 99.998%
% reduction ([2]; Nonanoic Acid 125 ppm, pH 4, 60 s, 50 °C): 100.000%
% reduction ([2]; Nonanoic Acid 125 ppm, pH 9, 60 s, 50 °C): 96.125%
% reduction ([3]; Nonanoic Acid 125 ppm): 99.954%
% reduction [4, 7]: 99.636%
Log Reduction [4, 7]: 2.44
% reduction [4, 8]: 100.000%
Log Reduction [4, 8]: 6.90
% reduction ([4]; pH 8.5, 600 s, 50 °C, used CIP): 100.000%
Log Reduction ([4]; pH 8.5, 600 s, 50 °C, used CIP): 7.04
% reduction [4, 9]: 100.000%
Log Reduction [4, 9]: 7.20
% reduction [4, 10]: 99.900%
Log Reduction [4, 10]: 3.00
% reduction [4, 11]: 100.000%
Log Reduction [4, 11]: 7.64
% reduction [4, 12]: 100.000%
Log Reduction [4, 12]: 7.64
% reduction [4, 13]: 100.000%
Log Reduction [4, 13]: 7.64
% reduction [4, 14]: 99.736%
Log Reduction [4, 14]: 2.58
% reduction ([4]; pH 9, 600 s, 50 °C, used CIP): 100.000%
Log Reduction ([4]; pH 9, 600 s, 50 °C, used CIP): 7.04
% reduction ([4]; pH 9, 2 days, 20 °C, used CIP): 100.000%
Log Reduction ([4]; pH 9, 2 days, 20 °C, used CIP): 7.20
% reduction [4, 15]: 100.000%
Log Reduction [4, 15]: 7.04
% reduction [4, 16]: 100.000%
Log Reduction [4, 16]: 7.04
% reduction [4, 17]: 99.905%
Log Reduction [4, 17]: 3.02
% reduction [4, 18]: 100.000%
Log Reduction [4, 18]: 6.34
% reduction [4, 19]: 100.000%
Log Reduction [4, 19]: 7.64
% reduction [4, 20]: 100.000%
Log Reduction [4, 20]: 7.64
reducing gram positive bacteria [4, 21]: effective
% reduction [5, 22]: 99.993%
Log Reduction [5, 22]: 4.18
% reduction ([5]; 2 days, 20 °C, used CIP): 97.846%
Log Reduction ([5]; 2 days, 20 °C, used CIP): 1.67
reducing gram negative bacteria [5, 21]: effective

CCCCCCCC(=O)O [Octanoic Acid, octanoic acid]
% reduction ([1]; Octanoic Acid 100 ppm, pH 4): 0.000%
% reduction ([1]; Octanoic Acid 100 ppm, pH 5): 54.967%
% reduction ([1]; Octanoic Acid 100 ppm, pH 9): 99.999% and 99.998%
% reduction ([1]; Octanoic Acid 125 ppm, pH 9): 99.998%
% reduction ([1]; Octanoic Acid 150 ppm, pH 4): 86.207%
% reduction ([1]; Octanoic Acid 200 ppm, pH 4): 99.998% and 99.996%
% reduction ([1]; Octanoic Acid 200 ppm, pH 7): 99.993%
% reduction ([2]; Octanoic Acid 125 ppm, pH 4, 60 s, 50 °C): 100.000%
% reduction ([2]; Octanoic Acid 125 ppm, pH 9, 60 s, 50 °C): 97.813%
% reduction ([2]; Octanoic Acid 150 ppm, pH 4, 50 s, 60 °C): 100.000%
% reduction ([2]; Octanoic Acid 200 ppm, pH 4, 50 s, 60 °C): 100.000%
% reduction ([3]; Octanoic Acid 125 ppm): 100.000%

OO [hydrogen peroxide]
Typical Antimicrobial pH Range [6]: <5

CC(=O)OO [peracetic acid]
Typical Antimicrobial pH Range [6]: <7

CCCCCCCC(=O)OO [peroctanoic acid]
Typical Antimicrobial pH Range [6]: <5

acidified sodium chlorite
Typical Antimicrobial pH Range [6]: 2.5-4
